In brackets after ≈: the same amount, converted by molar mass.
Tests used:
[1] = tested on: Pseudomonas aeruginosa PR1 (clinical isolate with intermediate aminoglycoside resistance); assay: MIC against Pseudomonas aeruginosa clinical isolate PR1; format: cell-based; settings: Pseudomonas aeruginosa resistant strain PR1
From the text: (§1) Pseudomonas aeruginosa is a prominent nosocomial pathogen. In addition to intrinsic antibiotic resistance to several antibiotics, Pseudomonas has acquired multiple additional mechanisms of resistance. As a result, therapeutic options for the treatment of infections caused by Pseudomonas aeruginosa are limited. We acquired clinical isolates of Pseudomonas aeruginosa (Micromyx LLC, Kalamazoo, Mich.), and used this panel to test compounds for Pseudomonicidal activity. […] For each strain and antibiotic, the mechanism(s) of resistance was inferred from the resistance profile. The presence of specific AGMEs was confirmed by colony PCR.

[2] = tested on: more than fifty resistant contemporary clinical isolates of Pseudomonas aeruginosa; assay: MIC90 against panel of resistant clinical isolates of Pseudomonas aeruginosa; format: cell-based
From the text: To assess this, a panel of more than fifty resistant contemporary clinical isolates of Pseudomonas aeruginosa were obtained from multiple sources including JMI Laboratories (North Liberty, Iowa), Pfizer (Groton, Conn.), Micromyx (Kalamazoo, Mich.), Dr. J. Chow (Wayne State University). Strains were characterized for resistance to a wide variety of classes of antibiotics including aminoglycosides, β-lactams and fluoroquinolones. […] This reflects the difficulty in treating clinical Pseudomonas aeruginosa infections. […] Using this stringent panel, we tested a subset of compounds of the invention (Table 4).

[3] = tested on: Pseudomonas aeruginosa PR2 (clinical isolate with intermediate aminoglycoside resistance); assay: MIC against Pseudomonas aeruginosa clinical isolate PR2; format: cell-based; settings: Pseudomonas aeruginosa resistant strain PR2
From the text: as §1

[4] = tested on: Acinetobacter baumannii (Aba, ABWT, ATCC #BAA-747); assay: MIC against Acinetobacter baumannii reference strain ABWT; format: cell-based
From the text: (§2) For evaluation of efficacy, we assembled panels of representative gram-negative pathogens, including Pseudomonas aeruginosa (Pae, PAWT, ATCC #27853), Klebsiella pneumoniae (Kpn, KPWT, ATCC #700603), Acinetobacter baumannii (Aba, ABWT, ATCC #BAA-747) and Escherichia coli (Eco, ECWT, ATCC #25922). These reference strains are useful indicator organisms to characterize compound activity against bacteria from a pathogenic genus in the absence of multiple resistance mechanisms. Two strains (PAWT and ECWT) are reference strains cited within the Clinical and Laboratory Standards Institute (CLSI) Standards for susceptibility testing by Minimum Inhibitory Concentration (MIC) (SXPS2) and are well suited for quality control. ABWT and ECWT are widely susceptible to aminoglycoside antibiotics, whereas PAWT and KPWT harbor a single aminoglycoside-modifying enzyme (AGME) that targets 4,6-substituted-2-deoxystreptamine AGs. […]

[5] = tested on: Klebsiella pneumoniae (Kpn, KPWT, ATCC #700603); assay: MIC against Klebsiella pneumoniae reference strain KPWT; format: cell-based; settings: for MIC KPWT: Klebsiella pneumonia KPWT, Table 5 (unit not given), in µg/mL
From the text: as §2, with “These reference strains are useful indicator organisms to characterize compound activity against bacteria from a pathogenic genus in the absence of multiple resistance mechanisms.” left out

[6] = tested on: fifty resistant contemporary clinical isolates of Acinetobacter baumannii; assay: MIC90 against panel of resistant clinical isolates of Acinetobacter baumannii; format: cell-based
From the text: As in the case of Pseudomonas aeruginosa and Klebsiella pneumoniae, we considered whether the SAR observed against select Acinetobacter baumannii strains 1, 2 or 3 was indicative of general potency. […] Using this stringent Acinetobacter baumannii panel, we tested a subset of compounds of the invention.

[7] = tested on: Klebsiella pneumoniae KR1 (clinical isolate with intermediate aminoglycoside resistance); assay: MIC against Klebsiella pneumoniae clinical isolate KR1; format: cell-based; settings: Klebsiella pneumonia KR1; in µg/mL
From the text: (§3) Klebsiella pneumoniae (Kpn) and Escherichia coli (Eco) are gram-negative (like Pae), enteric pathogens with increasing clinical relevance. Many clinical isolates of Kpn and Eco harbor extended-spectrum beta-lactamases and are no longer sensitive to most beta-lactam antibiotics. We acquired clinical isolates of Klebsiella pneumoniae and Escherichia coli (Micromyx LLC, Kalamazoo, Mich.) and used this panel to test compounds for anti-enteric activity.

panel of E. coli strains = assay: MIC90 against a panel of E. coli strains; format: cell-based; settings: in µg/mL
[8] = tested on: Pseudomonas aeruginosa PR3 (high-level, efflux-mediated, pan-aminoglycoside resistance); assay: MIC against Pseudomonas aeruginosa clinical isolate PR3; format: cell-based; settings: for MIC PR3: Pseudomonas aeruginosa resistant strain PR3
From the text: as §1

[9] = tested on: Klebsiella pneumoniae KR2 (clinical isolate with intermediate aminoglycoside resistance); assay: MIC against Klebsiella pneumoniae clinical isolate KR2; format: cell-based; settings: Klebsiella pneumonia KR2
From the text: as §3

[10] = tested on: Acinetobacter baumannii AB1; assay: MIC against Acinetobacter baumannii clinical isolate AB1; format: cell-based
From the text: (§4) Acinetobacter baumannii is another clinically important and very challenging gram negative pathogen. Members of the Acinetobacter genus, including baumannii, have a remarkable ability to upregulate and acquire resistance determinants. Coupled with its ability to survive for prolonged periods in a hospital environment, A. baumannii is an emerging threat for healthcare institutions globally. We acquired clinical isolates of Acinetobacter baumannii and used this panel to test compounds for anti-Acinetobacter activity. We first tested reference AGs against our panel of Aba strains.

[11] = tested on: Klebsiella pneumoniae KR3 (clinical isolate possessing high-level aminoglycoside resistance); assay: MIC against Klebsiella pneumoniae clinical isolate KR3; format: cell-based; settings: Klebsiella pneumonia KR3; in µg/mL
From the text: as §3

[12] = tested on: Pseudomonas aeruginosa (Pae, PAWT, ATCC #27853); assay: MIC against Pseudomonas aeruginosa reference strain PAWT; format: cell-based; settings: Pseudomonas aeruginosa wild type PAWT
From the text: as §2

[13] = tested on: Acinetobacter baumannii AB2; assay: MIC against Acinetobacter baumannii clinical isolate AB2; format: cell-based
From the text: as §4

[14] = tested on: fifty resistant contemporary clinical isolates of Klebsiella pneumoniae; assay: MIC90 against panel of resistant clinical isolates of Klebsiella pneumoniae; format: cell-based; settings: for MIC90 Klebsiella pneumonia: stringent panel of resistant clinical isolates, Table 5
From the text: Using this stringent Klebsiella pneumoniae panel, we tested a subset of compounds of the invention.

[15] = tested on: Acinetobacter baumannii AB3; assay: MIC against Acinetobacter baumannii clinical isolate AB3; format: cell-based
From the text: as §4

P. aeruginosa 6294 MLP-3 = assay: Rat neutropenic thigh model; format: in vivo
Method: The compound identified as SXP 2523 was selected for further testing in vivo. Twenty male Sprague Dawley rats were pre-treated with cyclophosphamide to render them neutropenic on day −4 and day −1 with 100 mg/kg and 75 mg/kg respectively. Rats were infected with P. aeruginosa 6294 MLP-3, via injection into the right thigh muscle of 0.1 mL per rat. Two hours post infection rats were treated intravenously with either SXP-2523 or amikacin in a total dose of 10 or 60 mg/kg, respectively. The test article and control agent were delivered at 2, 4, and 6 hours post infection. Five rats were treated with each drug concentration. One group of five rats was euthanized at initiation of treatment and thigh CFUs were processed (T=Rx). Twenty-four hours post infection rats were euthanized by CO2 inhalation. The right thigh muscles of the rats were aseptically removed, weighed, homogenized, serially diluted, and plated on MacConkey medium. The plates were incubated overnight at 37° C. in 5% CO2. CFU per gram of thigh was calculated by enumerating the plated colonies then adjusting for serial dilutions and the weight of the thigh. The following table 7 summarizes the results Table 6: […]

[16] = tested on: Klebsiella pneumoniae screening panel KPWT, KR1, KR2, KR3; assay: Klebsiella pneumoniae screening panel (KPWT, KR1, KR2, KR3), reference AGs; format: cell-based
From the text: as §3

[17] = tested on: Escherichia coli (Eco, ECWT, ATCC #25922); assay: MIC against Escherichia coli reference strain ECWT; format: cell-based; settings: ATCC25922
From the text: For evaluation of efficacy, we assembled panels of representative gram-negative pathogens, including Pseudomonas aeruginosa (Pae, PAWT, ATCC #27853), Klebsiella pneumoniae (Kpn, KPWT, ATCC #700603), Acinetobacter baumannii (Aba, ABWT, ATCC #BAA-747) and Escherichia coli (Eco, ECWT, ATCC #25922). These reference strains are useful indicator organisms to characterize compound activity against bacteria from a pathogenic genus in the absence of multiple resistance mechanisms. Two strains (PAWT and ECWT) are reference strains cited within the Clinical and Laboratory Standards Institute (CLSI) Standards for susceptibility testing by Minimum Inhibitory Concentration (MIC) (SXPS2) and are well suited for quality control. ABWT and ECWT are widely susceptible to aminoglycoside antibiotics, whereas PAWT and KPWT harbor a single aminoglycoside-modifying enzyme (AGME) that targets 4,6-substituted-2-deoxystreptamine AGs.

[18] = tested on: resistant strain of P. aeruginosa (P. aeruginosa 6294 MLP-3); assay: Rat neutropenic thigh model against resistant P. aeruginosa; format: in vivo; settings: resistant P. aeruginosa
Method: The compound identified as SXP 2523 was further tested in vivo against a resistant strain of P. aeruginosa. Twenty male Sprague Dawley rats were rendered neutropenic by treatment with cyclophosphamide on day −4 and day −1 with 100 mg/kg and 75 mg/kg, respectively. Rats were infected with P. aeruginosa 6294 MLP-3, via injection into the right thigh muscle of 0.1 mL per rat. Two hours post infection rats were treated intravenously with either SXP-2523 or amikacin in a total dose of 10 or 60 mg/kg, respectively. The test article and control agent were delivered at 2, 4, and 6 hours post infection. Five rats were treated with each drug concentration. One group of five rats were euthanized at initiation of treatment and thigh CFUs were determined (T=Rx). Twenty-four hours post infection; rats were euthanized by CO2 inhalation. The right thigh muscles of the rats were aseptically removed, weighed, homogenized, serially diluted, and plated on BHI medium. The plates were incubated overnight at 37° C. in 5% CO2. CFU per gram of thigh was calculated by enumerating the plated colonies then adjusting for serial dilutions and the weight of the thigh.

[19] = Log CFU/thigh, total dose 10 mg/kg SXP-2523 or 60 mg/kg amikacin iv
[20] = neutropenic male Sprague Dawley rats, iv at 2, 4, 6 h post infection, total dose 10 mg/kg SXP-2523 or 60 mg/kg amikacin, 24 h post infection

NCCC(O)C(=O)NC1CC(N)C(OC2OC(CN)C(O)CC2N)C(F)C1OC1OC(CNCC2CNC2)C(O)C(N)C1O (stereo not drawn) [SXP 2525]
MIC PR1 [1]: 8 µg/mL (≈ 12.5 µM)
MIC90 Pseudomonas aeruginosa [2]: 4 µg/mL (≈ 6.26 µM)
MIC PR2 [3]: 1 µg/mL (≈ 1.57 µM)
MIC ABWT [4]: 0.5 µg/mL (≈ 0.783 µM)
MIC KPWT [5]: 0.5
MIC90 Acinetobacter baumannii [6]: 2 µg/mL (≈ 3.13 µM)
MIC KR1 [7]: 1
MIC90 E. coli (panel of E. coli strains): 2
MIC PR3 [8]: 8 µg/mL (≈ 12.5 µM)
MIC KR2 [9]: 0.5
MIC AB1 [10]: 2 to 4 µg/mL
MIC KR3 [11]: 1
MIC PAWT [12]: 0.25 to 0.5 µg/mL
MIC AB2 [13]: 1 µg/mL (≈ 1.57 µM)
MIC90 Klebsiella pneumonia [14]: 1 µg/mL (≈ 1.57 µM)
MIC AB3 [15]: 8 µg/mL (≈ 12.5 µM)

NCCC(O)C(=O)NC1CC(N)C(OC2OC(CN)C(O)CC2N)C(F)C1OC1OC(CNC2CNC2)C(O)C(N)C1O (stereo not drawn) [SXP 2554]
MIC PR1 [1]: 2 µg/mL (≈ 3.2 µM)
MIC90 Pseudomonas aeruginosa [2]: 4 µg/mL (≈ 6.4 µM)
MIC PR2 [3]: 0.5 µg/mL (≈ 0.8 µM)
MIC ABWT [4]: 0.25 µg/mL (≈ 0.4 µM)
MIC KPWT [5]: 0.125
MIC90 Acinetobacter baumannii [6]: 2 µg/mL (≈ 3.2 µM)
MIC KR1 [7]: 0.25
MIC90 E. coli (panel of E. coli strains): 2
MIC PR3 [8]: 8 µg/mL (≈ 12.8 µM)
MIC KR2 [9]: 0.125
MIC AB1 [10]: 0.5 µg/mL (≈ 0.8 µM)
MIC KR3 [11]: 0.25-0.5
MIC PAWT [12]: 0.25 µg/mL (≈ 0.4 µM)
MIC AB2 [13]: 0.25 to 0.5 µg/mL
MIC90 Klebsiella pneumonia [14]: 0.5 µg/mL (≈ 0.8 µM)
MIC AB3 [15]: 2 to 4 µg/mL

NCC[C@H](O)C(=O)N[C@@H]1C[C@H](N)[C@@H](O[C@H]2O[C@H](CN)[C@@H](O)[C@H](O)[C@H]2O)[C@H](O)[C@H]1O[C@H]1O[C@H](CO)[C@@H](O)[C@H](N)[C@H]1O [amikacin]
MIC [1]: 8 µg/mL (≈ 13.7 µM)
Change from 24 hr. control (P. aeruginosa 6294 MLP-3; [19]): −1.49
Change from T = Rx controls (P. aeruginosa 6294 MLP-3; [19]): 1.59
Log CFU/thigh (P. aeruginosa 6294 MLP-3; [20]): 5.77 Log CFU/thigh
MIC90 ([2]; Pseudomonas aeruginosa): ≥ 64 µg/mL
potency against Klebsiella pneumoniae test panel [16]: potency against 3 of 4 strains tested
MIC [3]: 8 to 16 µg/mL (≈ 13.7 to 27.3 µM)
MIC ([4]; ATCCBAA747): 1 µg/mL (≈ 1.71 µM)
MIC ([5]; ATCC700603, Klebsiella pneumoniae KPWT, Table 2): 1 µg/mL (≈ 1.71 µM)
MIC ([8]; Pseudomonas aeruginosa, read-out: MIC PR3): 64 µg/mL (≈ 109 µM)
MIC [17]: 2 to 4 µg/mL (≈ 3.42 to 6.83 µM)
MIC ([12]; ATCC27853): 1 to 2 µg/mL (≈ 1.71 to 3.42 µM)
Change from 24 hr. control [18, 19]: −2.73
Change from T = Rx controls [18, 19]: 0.43
Log CFU/thigh [18, 20]: 3.92 Log CFU/thigh
MIC90 ([14]; Klebsiella pneumoniae, fifty resistant contemporary clinical isolates, reference antibiotics): ≥ 64 µg/mL
